Source: patent US20120059162A1, “FUSED IMIDAZOLE DERIVATIVE HAVING TTK INHIBITORY ACTION” (Oncotherapy Science, Inc., priority 2009, published 2012)
Read-outs that look alike come from different tables or passages of the source.

Tests used:
TTK = biological target: T1, TTK (Homo sapiens, UniProt P33981); test: TTK assay: screening of TTK kinase activity suppressing action using p38 MAPK peptide; assay type: biochemical; conditions: read-out: TTK IC50
T1 sequence (P33981 1-857): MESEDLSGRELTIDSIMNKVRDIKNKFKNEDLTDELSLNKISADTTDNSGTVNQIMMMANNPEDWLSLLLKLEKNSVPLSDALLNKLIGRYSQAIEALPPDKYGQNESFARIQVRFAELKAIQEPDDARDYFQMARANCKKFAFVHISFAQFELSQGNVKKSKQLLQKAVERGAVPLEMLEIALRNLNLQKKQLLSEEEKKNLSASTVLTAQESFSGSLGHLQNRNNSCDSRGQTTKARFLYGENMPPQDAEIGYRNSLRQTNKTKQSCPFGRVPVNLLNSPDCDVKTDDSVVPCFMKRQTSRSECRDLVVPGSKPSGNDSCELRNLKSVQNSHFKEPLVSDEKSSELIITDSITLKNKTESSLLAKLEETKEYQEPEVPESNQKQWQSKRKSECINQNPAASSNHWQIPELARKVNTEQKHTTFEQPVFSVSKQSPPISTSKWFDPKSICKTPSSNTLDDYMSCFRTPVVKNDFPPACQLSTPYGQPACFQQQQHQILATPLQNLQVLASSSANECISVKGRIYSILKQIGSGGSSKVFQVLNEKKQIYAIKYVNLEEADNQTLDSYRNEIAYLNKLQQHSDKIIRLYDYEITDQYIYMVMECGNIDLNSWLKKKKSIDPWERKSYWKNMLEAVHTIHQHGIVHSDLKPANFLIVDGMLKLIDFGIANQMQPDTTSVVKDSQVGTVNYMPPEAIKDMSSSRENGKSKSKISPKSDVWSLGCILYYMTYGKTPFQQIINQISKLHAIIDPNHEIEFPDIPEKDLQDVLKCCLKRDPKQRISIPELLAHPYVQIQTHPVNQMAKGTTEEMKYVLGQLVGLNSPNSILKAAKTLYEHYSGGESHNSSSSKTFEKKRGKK
How it was run: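 TTK (4 μg/ml in enzyme solution) mixed with p38 MAPK peptide and ATP (each 60 μM in substrate solution) in Tris-HCl pH 7.5 with MgCl2, DTT, Na3VO4, β-glycerophosphate, BSA. Reaction aliquot captured on NeutrAvidin plate, detected with Eu-labelled anti-mouse IgG by time-resolved fluorescence; inhibition relative to no-compound signal.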

A549 = A549 assay: screening of cancer cell growth inhibiting compound; assay type: cell-based; conditions: Homo sapiens, A549 cells, read-out: A549 IC50
How it was run: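 A549 cells (1×10^4/ml) in D-MEM with 10% FBS were pre-incubated one day at 37 °C, then exposed to compound dilutions for three further days. Viable cell number read by WST-8 (1–4 hours), absorbance 450 nm (reference 620 nm); inhibition calculated relative to untreated wells.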

Row | IC50 (TTK) | IC50 (A549; values given as IC50 intervals) | IC50 (TTK; p38 MAPK peptide substrate) | IC50 (A549; 72 h, three days, WST-8) | Structure (SMILES)
1 | 3.9 nM | 50 to 500 nM |  |  | O=C(NC1CC1)c1ccc(-c2cnc3c(NCC4CCCO4)cc(NC4CCCCC4)nn23)cc1 (centres unmarked) [Example 2-167]
2 | 12.6 nM | 500 to 1000 nM |  |  | O=C(NC1CC1)c1ccc(-c2cnc3c(NCC4CCOCC4)c(Cl)c(NC4CCCC4)nn23)cc1 [Example 2-218]
3 | 14.3 nM | 50 to 500 nM |  |  | N#Cc1ccc(Oc2cc(NCC3CCOCC3)c3ncc(-c4ccc(C(=O)NC5CC5)cc4)n3n2)cc1 [Example 2-177]
4 |  |  | 7.3 nM | 50 to 500 nM | CCC(C)CNc1cc(NC2CCCCC2)nn2c(-c3ccc(C(=O)NC4CC4)cc3)cnc12 (centres unmarked) [Example 2-137]
5 | 8.3 nM | 50 to 500 nM |  |  | O=C(NC1CC1)c1ccc(-c2cnc3c(NCC4CCOCC4)cc(C4=CCNCC4)nn23)cc1 [Example 2-211]
6 |  |  | 18.3 nM | 500 to 1000 nM | N#Cc1ccc(-c2cn3c(-c4ccc(C(=O)NC5CC5)cc4)cnc3c(NCCS(=O)(=O)N3CCCC3)n2)cc1 [Example 1-224]
7 |  |  | 3.3 nM | 50 to 500 nM | COc1cccc(Oc2cc(NCC3CCOCC3)c3ncc(-c4ccc(C(=O)NC5CC5)cc4)n3n2)c1 [Example 2-109]
8 |  |  | 3.6 nM | 50 to 500 nM | CC(CNc1cc(NC2CCCCC2)nn2c(-c3ccc(C(=O)NC4CC4)cc3)cnc12)C(F)(F)F (centres unmarked) [Example 2-162]
9 |  |  | 9.4 nM | 1000 to 10000 nM | NC1CCCCC1Nc1cc(NCC2CCOCC2)c2ncc(-c3ccc(C(=O)NC4CC4)cc3)n2n1 (centres unmarked) [Example 2-71]
10 |  |  | 2.9 nM | ≤ 50 nM | CCC(C)(C)Nc1cc(NCC2CCOCC2)c2ncc(-c3ccc(C(=O)NC4CC4)cc3)n2n1 [Example 2-68]
